From PubChem BioAssay AID179 (DTP/NCI, 2004)
Several values for one entry are separate records, joined by “and”; a condition that tells them apart may be missing. Equal values may be shown once. Activity calls are given as the source filed them.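 Rule for the calls: active = compounds giving half or more protection of infected cells from virus-caused growth loss, again on retest; inactive = the rest.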 Where a SMILES comes first, the peptide text is derived from it. [ ]: non-standard residue; d: D form. The star is where a group is joined. ξ: configuration not given here. Bz = O=C(c1ccccc1)*; ξC = NC(CS)C(=O)O

Tested on: CEM cells HIV-1 protection, formazan growth assay
Assay: NCI AIDS Antiviral Assay
Settings: for IC50: measured here: growth of uninfected CEM cells
How it was run: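 Five concentrations of each compound were applied to infected and uninfected human CEM cells. Protection from HIV-1 was judged from growth measured with a soluble formazan assay.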

| Compound | EC50 | IC50 | outcome |
| --- | --- | --- | --- |
| CC1(C)OP(=O)(O)C=C1[Se]c1ccccc1 | > 324 µM | > 324 µM | – |
| CCCCNC(=O)Sc1ccccc1C(=O)NCCC(N)=O | 0.933 µM | 117 µM | – |
| O=C(/C=C(\C(=O)c1cccs1)c1cccs1)c1ccc(C(=O)/C=C(\C(=O)c2cccs2)c2cccs2)cc1 | > 200 µM | > 200 µM | – |
| ClC1=C(Cl)C(Cl)(Cl)c2c3c(c4c(c21)C(Cl)(Cl)C(Cl)=C4Cl)C(Cl)(Cl)C(Cl)=C3Cl | > 8.71 µM | > 8.71 µM | – |
| CN(C)c1cc2c3ccccc3ccc2c2ccccc12 | > 7.41 µM | > 7.41 µM | – |
| O=[N+]([O-])c1ccc(-c2noc(-c3ccccc3)c2C2=NCCN2)cc1 | > 15.5 µM | > 15.5 µM | – |
| O=c1[nH]c2cc3c(cc2n2cccc12)oc1ccccc13 | > 200 µM | > 200 µM | – |
| NC(=O)C(NN=C(c1ccccc1)c1ccccc1)c1ccccc1 (stereo not drawn) | – | – | inactive |
| CCOC(=O)NC(Nc1c(F)c(F)c(F)c(F)c1F)(C(F)(F)F)C(F)(F)F | > 200 µM | 141 µM | – |
| CN=c1nc2sc3c(c2c(NC(=S)NC)s1)CCCC3 | 77.6 µM | > 200 µM | – |
| O=C1OC(c2cccc3c(F)cccc23)c2ccccc21 (stereo not drawn) | – | – | inactive |
| C=CCNC(=S)/N=C/C(C(=O)Nc1ccccc1C)=C(\C)O | > 200 µM | > 200 µM | – |
| CC(C)CC(NC(=O)C(Cc1ccc(O)cc1)NC(=O)C(C)N)C(=O)NCC(=O)NC(CCCCN)C(=O)NC(CCCCN)C(=O)NC(C(=O)NC(C)C(=O)NC(C(=O)NC(CC(N)=O)C(=O)O)C(C)O)C(C)C (stereo not drawn) (H-AYLGKKVATN-OH; configuration not given here) | – | – | inactive |
| COc1cc(C2C3=C(COC3=O)OC(C)(C)Oc3cc4c(cc32)OCO4)cc(OC)c1O (stereo not drawn) | > 2 µM | 0.575 µM | – |
| Cc1ncc([N+](=O)[O-])n1CC(O)CCl (stereo not drawn) | > 200 µM | > 200 µM | – |
| C[C@@H]1C(=O)CC2C(C)(C)CCC[C@]2(C)[C@@]12CC[C@]1(C=COC1)O2 (stereo partly drawn) | > 50.1 µM | > 50.1 µM | – |
| CC(=O)OC1CC[C@@]2(C)C(C1)CC(OC(C)=O)[C@@H]1C2CC(OC(C)=O)[C@]2(C)C(C(C)CC=C(c3ccc(Cl)cc3)c3ccc(Cl)cc3)CCC12 (stereo partly drawn) | > 200 µM | 57.5 µM | – |
| CCN(CC)C(c1ccc(N(C)C)cc1)C(c1ccc(N(C)C)cc1)N(CC)CC (stereo not drawn) | > 158 µM | 42.7 µM | – |
| CCc1c2c(c(C)n1C)C(c1ccccc1)=NCC(=O)N2 | > 468 µM | 295 µM | – |
| COc1ccc2nc3cc([N+](=O)[O-])ccc3c(NNc3ccc([N+](=O)[O-])cc3)c2c1 | > 200 µM | 50.1 µM | – |
| O=C(O)Cc1cccc2c1OC(c1ccccc1)C(Cl)(C(=O)c1ccccc1)C2=O (stereo not drawn) | > 200 µM | 5.5 µM | – |

| Compound | EC50 | IC50 | outcome |
| --- | --- | --- | --- |
| COCCCNC(=O)C1C(=O)C(=O)N(CCCOC)C1=O (stereo not drawn) | – | – | inactive |
| C[C@H](N)C(=O)N[C@@H]1[C@H]2C(=C(O)C[C@@H](O)[C@@H]2O)C(=O)O[C@]1(C)C(Cl)Cl | > 67.6 µM | 0.224 µM | – |
| O=C(NC(=Nc1ccccc1)SCSC(=Nc1ccccc1)NC(=O)c1c(Cl)cccc1Cl)c1c(Cl)cccc1Cl | > 200 µM | 14.1 µM | – |
| Cc1cccc(C(=O)O)c1C(=O)c1cccc2ccccc12 | – | – | inactive |
| COc1cc(OC)c(/C=C\c2nccc3ccccc23)c(OC)c1 | > 200 µM | 13.8 µM | – |
| CC(SC(C)C(=O)N/N=C/c1c[nH]c2ccccc12)C(=O)N/N=C\c1c[nH]c2ccccc12 (stereo not drawn) | > 200 µM | 120 µM | – |
| Cc1noc(NC(=O)Nc2ccccc2C(F)(F)F)c1C | > 200 µM | > 200 µM | – |
| Cc1cc(N=Nc2ccccc2)ccc1NCS(=O)(=O)O | > 200 µM | 117 µM | – |
| CCCCCCCCCCCCC(Br)C(=O)OCC1OC(n2cc(C)c(=O)[nH]c2=O)CC1N=[N+]=[N-] (stereo not drawn) | 0.0977 µM | 3.39 µM | – |
| Cc1cc(N(CCC#N)CCC#N)ccc1/C=C(\NC(=O)/C=C/c1ccccc1)C(N)=O | – | – | inactive |
| Cc1c(S(=O)c2cc(C(C)(C)C)c(O)c(CN3CCCC3)c2C)cc(C(C)(C)C)c(O)c1CN1CCCC1 | > 200 µM | 13.5 µM | – |
| Nc1nc(NNc2cccc(F)c2)cc(=O)[nH]1 | > 200 µM | 16.6 µM | – |
| O=C(CC(O)(C(F)(F)F)C(F)(F)Cl)CC(O)(C(F)(F)F)C(F)(F)Cl (stereo not drawn) | – | – | inactive |
| O=P(O)(CN1CCN(CP(=O)(O)c2ccccc2)CCN(CP(=O)(O)c2ccccc2)CC1)c1ccccc1 | > 200 µM | 4.07 µM | – |
| NCCC=C(c1cc(Cl)c(O)c(C(=O)O)c1)c1cc(Cl)c(O)c(C(=O)O)c1 | 151 µM | > 200 µM | – |
| CCN1C(=O)c2ccccc2C1(O)c1ccc(Cl)cc1 (stereo not drawn) | > 200 µM | 151 µM | – |
| Cc1cc2n[n+]3[n-]cc(-c4ccccc4)n3c2cc1[N+](=O)[O-] | > 200 µM | > 200 µM | – |
| COC(=O)C(CS)NC(=O)CNC(=O)c1ccccc1 (stereo not drawn) (Bz-Gly-[ξC]-OMe) | > 851 µM | 46.8 µM | – |
| COc1cc(OC)c(C(=O)[O][Sn]([c]2ccccc2)([c]2ccccc2)[c]2ccccc2)cc1OC | > 200 µM | 0.0631 µM | – |
| CC(c1ccccc1)C(O)S(=O)(=O)O (stereo not drawn) | – | – | inactive |
| COc1cc(C(=O)O)ccc1O | > 200 µM | > 200 µM | – |

| Compound | EC50 | IC50 | outcome |
| --- | --- | --- | --- |
| Cc1cc2c(C(C)C)c(O)c(O)c(C=O)c2c(O)c1-c1c(C)cc2c(C(C)C)c(O)c(O)c(C=Nc3ccccc3SSc3ccccc3N)c2c1O | > 200 µM | 24.5 µM | – |
| Cc1c(C(=O)C/C(=N/NC(=O)c2ccccc2O)C(=O)Nc2ccccc2C(C)C)[n+](=O)c2ccccc2n1[O-] | > 6.92 µM | > 6.92 µM | – |
| COC(=O)C1=C(C(=O)OC)C2(CCCCCC2=O)OC1=O (stereo not drawn) | > 851 µM | 45.7 µM | – |
| O=C1NCCN1C(=O)Nc1ccc(S(=O)(=O)c2ccc([N+](=O)[O-])cc2)cc1 | > 200 µM | 74.1 µM | – |
| NC(=O)CCCCC1CCSS1 (stereo not drawn) | > 457 µM | > 457 µM | – |
| O=C(O)/C=C/C=C/c1ccccc1 | > 200 µM | > 200 µM | – |
| CCCCCCCCCCCCCCCCCC1=Nc2cc(C)c(C)cc2NC(=O)C1 | > 100 µM | > 100 µM | – |
| CC(=O)OCC1OC(NC(=S)Nn2c(=O)[nH]c3ccccc3c2=O)C(OC(C)=O)C(OC(C)=O)C1OC(C)=O (stereo not drawn) | > 200 µM | > 200 µM | – |
| CCCCCCNCCCNc1c2ccccc2nc2cccc([N+](=O)[O-])c12 | > 2 µM | 0.138 µM | – |
| Cc1ccc(NC(=O)SCCC(=O)O)cc1 | – | – | inactive |
| O=[N+]([O-])c1ccc(C(Nc2ccccc2)P(c2ccccc2)c2ccccc2)cc1 (stereo not drawn) | > 200 µM | 43.7 µM | – |
| O=C(C/C(=N/O)C(=O)NC1=C(Cl)C(=O)c2ccccc2C1=O)CC(c1ccccc1)c1c(O)c2ccccc2oc1=O (stereo not drawn) | > 12.3 µM | 6.61 µM | – |
| CN1C(=O)C(Cl)(C(Cl)(Cl)S(=O)(=O)O)C(=O)c2ccccc21 (stereo not drawn) | – | – | inactive |
| COc1cc2c(cc1O)C(C)Cc1cc3c(cc1N(C)CC2)OCO3 (stereo not drawn) | > 117 µM | 2.24 µM | – |
| Cc1cc(N(CCC#N)CCC#N)ccc1/C(N=Nc1ccc(Cl)cc1)=N\NC(=O)c1cc(Cl)ccc1O | > 200 µM | 102 µM | – |
| Cc1ccc(-n2cc(-c3ccc(Cl)cc3)c3c(N/N=C4\SCC(=O)N4C)ncnc32)cc1 | > 200 µM | 8.32 µM | – |
| Nc1ccc(O)c(C(=O)[O][Sn]([c]2ccccc2)([c]2ccccc2)[c]2ccccc2)c1 | > 2 µM | 0.129 µM | – |
| N#CC12CCC1C1CCCCC12N1CCSCC1 (stereo not drawn) | – | – | inactive |
| CCOC(=O)C(/C=N/C(=S)Nc1c(C)cccc1C)=C(/O)c1ccccc1 | > 200 µM | > 200 µM | – |
| COc1ccc2nc3cc(Cl)ccc3c(NCCC(=O)OCC(O)C(O)C(O[C@H](C)C(=O)NC(C)C(=O)NC(CCC(N)=O)C(=O)OCc3ccccc3)C(C=O)NC(C)=O)c2c1 (stereo partly drawn) | 0.955 µM | 4.68 µM | – |
| Nc1cc(=O)[nH]c(SC2=NC(N)CC(O)C2)n1 (stereo not drawn) | – | – | inactive |

| Compound | EC50 | IC50 | outcome |
| --- | --- | --- | --- |
| OCC1NCC(O)C(O)C1O (stereo not drawn) | > 200 µM | > 200 µM | – |
| Cc1ccc(SSc2ccc([N+](=O)[O-])cc2[N+](=O)[O-])cc1 | > 200 µM | 9.12 µM | – |
| CC(C)=CC(=O)CC(=O)C(=O)Nc1ccc(Cl)c(Cl)c1 | > 417 µM | > 417 µM | – |
| COc1ccc(C2CC(C)=Nc3c([nH]c(=S)[nH]c3=O)N2)cc1 (stereo not drawn) | > 16.6 µM | > 16.6 µM | – |
| C[N+](C)(C)CC(=O)N/N=C/c1oc(-c2c(O)ccc3ccccc23)c(-c2c(O)ccc3ccccc23)c1[N+](=O)[O-] | > 45.7 µM | 24.5 µM | – |
| COC(=O)c1ccc(CSc2ccc(N)cc2)cc1 | – | – | inactive |
| O=C(CC1C(=O)Nc2ccccc2S1=O)Nc1ccccc1 (stereo not drawn) | > 22.9 µM | > 22.9 µM | – |
| CC(C)C1=C(O)C2=C(C(=O)C1=O)C1(C)CCCC(C)(C)C1CC2O (stereo not drawn) | > 200 µM | 14.5 µM and 13.8 µM | – |
| O=c1cc(NCCCCCO)[nH]c(=O)[nH]1 | > 200 µM | > 200 µM | – |
| COc1ccc(C2(OC)Oc3ccccc3-c3nc4ccccc4nc32)cc1 (stereo not drawn) | > 69.2 µM | > 69.2 µM | – |
| Cc1ccc2c(c1)[nH]c(=S)n2C=C(C#N)C#N | > 200 µM | > 200 µM | – |
| O=c1cnn(C2OC(CO)C(F)C2F)c(=O)[nH]1 (stereo not drawn) | > 363 µM | > 363 µM | – |
| COc1ccc2c(O)c(Cc3ccc(OC)c(OC)c3)c(=O)oc2c1 | – | – | inactive |
| CN1C(=O)C2(C=CCC2)c2ccccc21 (stereo not drawn) | > 1260 µM | 81.3 µM | – |
| CC(c1ccccc1)N1CC(C)(c2ccccc2)N(O)C(c2ccccc2)C1C (stereo not drawn) | > 18.6 µM | > 18.6 µM | – |
| COc1cc(CC(=O)O)c(C(=O)c2ccc(C#N)cc2)cc1OC | > 200 µM | > 200 µM | – |
| CC(=O)NNc1nc(C)c(C(/C=C/c2ccc([N+](=O)[O-])cc2)=N/NC(N)=O)s1 | > 33.9 µM | > 33.9 µM | – |
| CCCCCCCCCCCCCCCCCC(=O)OCCO | – | – | inactive |
| Cc1cc2c(cc1C)NC(=O)C(NC(=O)c1ccc(Cl)cc1)C=N2 (stereo not drawn) | > 200 µM | > 200 µM | – |
| CN1CCC(OC(=O)Oc2ccccc2)(c2ccccc2)CC1 | > 200 µM | 30.9 µM | – |
| Oc1ccc(Cl)cc1Sc1cc(Cl)ccc1O | > 200 µM | 7.41 µM | – |
